Results: patent US8207154B2, “Catatonic bacteriochlorophyll derivatives” (Yeda Research and Development Co., Ltd., priority 2005, dated 2012)

Key:
[1] = Octanol/water partition ratio; assay type: physicochemical
Text: Optical absorption in water, λ (relative absorption): 753 (1.00), 519 (0.30), 354 (1.25) nm. Octanol/water partition ratio is 40/60. ESI-MS (+): 413.62 ([M-2×citrate]/2). Octanol/water partition ratio is 50/50. ESI-MS (+): 455.89 ([M-2×citrate]/2). Octanol/water partition ratio is 75/25.

St. albus = assay: Phototoxicity on Gram-positive bacteria, colony counting; assay type: cell-based
Procedure: (ii) Bacterial cultures. Bacteria of strains St. albus and E. coli XL-1 were cultured in liquid LB medium (E. coli in LB containing 12.5 μg tetracyclin/ml) to a final density of OD600 nm=0.5-0.9 (1 OD=8×10^8 bacteria/ml). The bacteria were spun down (4000×g, 5 min.) and resuspended in PBS.
(b) Bacterial. To determine the photodynamic efficacy, bacteria were diluted to aliquots of 300 μl containing about 10^7 bacteria, and incubated with increasing concentrations of sensitizer in plastic test tubes in the dark for 1 h at room temperature, and then illuminated at 70 mW/cm^2 for 15 min. Samples of the treated bacteria cultures were subsequently plated at different dilutions (50-200 bacteria/plate) on LB agar and cultured for 24 h at 37° C. for determination of bacterial survival by colony counting. Triplicate determinations were conducted and representative experiments are shown.
The phototoxicity of positively-charged compound 5 was tested on Gram-positive St. albus and Gram-negative E. coli bacteria in comparison to the negatively-charged Pd 3^1-oxo-15-methoxycarbonylmethyl-Rhodobacteriochlorin 13^1-(2-sulfoethyl)amide dipotassium salt (described in PCT/IL03/00973). Bacteria were incubated with increasing concentrations of the sensitizers for 1 h and illuminated or kept in the dark. […] Gram-positive bacteria St. albus, was 100 times more sensitive to compound 5 than Gram-negative E. coli. No phototoxicity was observed when bacteria were incubated and treated with the same sensitizers' concentration range without illumination (dark controls).

[2] = Pharmacokinetics in rat blood after i.v. injection (fluorescence); assay type: in vivo, Wistar rats
Procedure: (ix) Pharmacokinetics. Anesthetized Wistar rats (n=3 per each time-point) were i.v. injected with compound 5 of the invention (0.6 mg/kg). […] Control blood samples were collected from three untreated rats and treated accordingly. The test tubes containing the blood samples were weighed again in order to calculate the exact sample mass. The blood samples were then frozen in liquid nitrogen and lyophilized. The lyophilized samples were extracted with methanol (1 ml each), vortexed and centrifuged. The supernatant was collected and analyzed by fluorescence measurements (Spectrofluorimeter SLM-8000, Aminco USA). The fluorescence emission spectra were recorded in a range of 650-850 nm, with excitation at 520 nm. Fluorescence of methanol and untreated blood extracts were used as blanks. A calibration curve with known concentrations of the sensitizer was prepared.

C6 glioma xenografts = assay: Photodynamic treatment (PDT) of C6 glioma xenografts; assay type: in vivo, CD1 nude mice
Procedure: (vii) Tumor implantation. Cultured C6 glioma cell monolayers were scraped in saline, centrifuged at 250 g for 5 min, resuspended in saline and subcutaneously injected (2×10^6 cells/mouse) into the back of CD1 nude mice. Tumors reached a treatment diameter of 6-8 mm within 2 weeks. The mice were sacrificed (according to the guidelines of the Weizmann Institute of Science) when tumors reached the diameter of ≧15 mm.
(xi) PDT Protocol. CD1 nude mice bearing C6 glioma (n=17) were anesthetized and compound 5 (0.3 mg/kg) was injected via the tail vein. The tumor area was immediately illuminated (drug-to-light time interval (DLTI)=0) transcutaneously for 15 min by 755 nm diode laser (CeramOptec, Germany) with light dose of 80 mW/cm^2 (light field diameter—14 mm). Following illumination the mice (n=12) were placed back in the cage. Tumor response (using local necrosis at day 8 post-PDT as end point) was recorded photographically, and tumor volume was assessed (Gleave et al., 1992.) Response was considered as partial when only a part of the illuminated tumor became necrotic. Mice were considered cured if they were tumor free 90 days after treatment. Continued tumor growth following PDT was scored as no response. Mice were sacrificed when tumor diameter reached 15 mm. The following controls were used: (i) dark control (n=3)-tumor-bearing mice i.v. injected with sensitizer but not illuminated; (ii) light control (n=2)-tumor-bearing mice not injected with sensitizer but illuminated; (iii) untreated control (n=2)-tumor-bearing mice not injected with sensitizer and not illuminated.
Based on the pharmacokinetic data described in Example 20 above, the treatment protocol for compound 5 was set to 15-min illumination immediately after injection of the sensitizer, using a dedicated medical laser matched to the peak absorption of 5 (CeramOptec, Germany, 755 nm). In order to test the drug efficiency, CD1 male nude mice (n=12) were treated with a dose of 0.3 mg/kg compound 5 and light intensity of 80 mW/cm^2. […] FIGS. 6B-6C are photographs of the tumor site of a mice injected with compound 5 but not illuminated and of a mice injected with saline and illuminated, respectively.
FIG. 7 depicts a Kaplan-Meier survival curve showing 80% survival for mice treated with compound 5 and illuminated (treatment, squares).

[3] = target: human serum albumin (HSA) (Homo sapiens, UniProt P02768); assay: Interaction with human serum albumin (aggregation state, spectrophotometric); assay type: binding; conditions: in PBS, 3.2×10^−4 M, 0.1-5 mg HSA
Sequence of human serum albumin (HSA) (P02768 25-609): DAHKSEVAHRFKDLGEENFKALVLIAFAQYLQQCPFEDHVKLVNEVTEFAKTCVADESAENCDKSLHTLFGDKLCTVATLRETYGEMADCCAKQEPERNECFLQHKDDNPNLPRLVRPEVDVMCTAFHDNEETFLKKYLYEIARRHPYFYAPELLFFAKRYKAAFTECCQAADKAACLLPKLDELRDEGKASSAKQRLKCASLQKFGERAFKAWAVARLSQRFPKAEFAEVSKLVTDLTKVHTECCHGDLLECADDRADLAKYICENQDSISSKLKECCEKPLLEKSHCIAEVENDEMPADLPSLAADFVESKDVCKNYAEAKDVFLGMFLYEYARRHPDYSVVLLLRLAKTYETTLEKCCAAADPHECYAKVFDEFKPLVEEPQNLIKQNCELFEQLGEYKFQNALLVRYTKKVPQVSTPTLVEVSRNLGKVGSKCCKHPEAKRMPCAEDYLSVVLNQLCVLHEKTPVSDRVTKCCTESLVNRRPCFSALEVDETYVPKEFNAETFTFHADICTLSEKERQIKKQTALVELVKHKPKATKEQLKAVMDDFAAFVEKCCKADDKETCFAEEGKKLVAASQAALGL
Procedure: A solution of 5 in PBS (3.2×10^−4 M, 100 μl) was mixed with various amounts of human serum albumin (0.1, 0.5, 1, 2, and 5 mg). Aggregation, at high concentrations of 5 in aqueous solutions, is reflected by splitting of the original monomeric peak at 747 nm into two new peaks at 720 and 760 nm. The state of aggregation was followed spectrophotometrically over the range of albumin concentrations at room temperature in a 0.1 mm cuvette. The absorbance intensity values at the peak wavelengths were taken as an indication of the aggregation.
Addition of the albumin caused disaggregation of the sensitizer 5 in PBS (FIG. 2). The absorption spectra of the solutions containing increasing amounts of albumin resembled the spectrum of the monomeric pigment 5 in methanol.

Substance: 3^1-Oxo-15-methoxycarbonylmethyl-Rhodo-bacteriochlorin 13^1,17^3-di(2-N^3-trimethylammoniumethyl)amide dicitrate salt [Compound 5]
- Octanol/water partition ratio ([1]; dicitrate salt): 40/60
- Octanol/water partition ratio ([1]; listed as 2, dicitrate salt): 75/25
- sensitivity of St. albus relative to E. coli (St. albus): 100 times
- phototoxic killing concentration (St. albus; 1 h incubation, illuminated 15 min at 70 mW/cm^2, read-out: Kd (phototoxicity)): 20 nM
- clearance kinetics ([2]; 24 h after i.v. administration): bicompartmental distribution
- sensitizer cleared ([2]; within 30 min after i.v. injection (0.6 mg/kg)): about 60%
- survival (Kaplan-Meier survival curve) (C6 glioma xenografts; 0.3 mg/kg i.v., illuminated 15 min, 755 nm, 80 mW/cm^2): 80%
- lower concentration causing tumor eradication than Pd-Bpheid or the negatively-charged 13^1-(2-sulfoethyl)amide dipotassium salt (C6 glioma xenografts; C6 glioma xenografts in mice): 10 fold
- outcome at tumor site (C6 glioma xenografts; PDT-treated mouse, by day 32): the wound healed and the animal was cured
- tumor necrosis (C6 glioma xenografts; PDT-treated mouse, day 14, 0.3 mg/kg, 80 mW/cm^2): tumor necrosis was observed
- local reaction after treatment (C6 glioma xenografts; all animals of full treatment group, day 1 after treatment): developed inflammation and edema
- tumor necrosis, dark control (C6 glioma xenografts; injected with compound but not illuminated): No necrosis of the tumor
- aggregation state on addition of albumin [3]: disaggregation
